From ChEMBL document CHEMBL2034963, “Synthesis and pharmacological assessment of diversely substituted pyrazolo[3,4-b]quinoline, and benzo[b]pyrazolo[4,3-g][1,8]naphthyridine derivatives” (Eur J Med Chem, 2011)
Calls of active or inactive are those of the source. No cut-off for these calls is given here.

Assays:
Cholinesterase = Cholinesterase (Equus caballus, UniProt P81908)
Description: Inhibition of Equus caballus BChE preincubated for 10 mins measured after 15 mins by Ellman's method

Acetylcholinesterase [1] = target: T1, Acetylcholinesterase (Electrophorus electricus, UniProt O42275)
Description: Inhibition of electric eel AChE preincubated for 10 mins measured after 15 mins by Ellman's method

SH-SY5Y [2] = assay: Neuroprotective activity in rotenone/oligomycin-induced cell death in human SH-SY5Y cells assessed as LDH release at 10 nM pretreated for 1 hr before rotenone/oligomycin challenge measured after 24 hrs by spectrophotometric method (reference value: 13 %); type: functional
Acetylcholinesterase [3] = target: T1, Acetylcholinesterase; assay: Mixed type inhibition of electric eel AChE using acetylthiocholine as substrate by Lineweaver-Burk plot analysis
SH-SY5Y [4] = assay: Neuroprotective activity in rotenone/oligomycin-induced cell death in human SH-SY5Y cells assessed as LDH release at 1 uM pretreated for 1 hr before rotenone/oligomycin challenge measured after 24 hrs by spectrophotometric method (reference value: 13 %); type: functional
SH-SY5Y [5] = assay: Neuroprotective activity in okadaic acid-induced cell death in human SH-SY5Y cells at 1 uM after 24 hrs by MTT method; type: functional, cell-based

Sequence of Cholinesterase (P81908 whole entry): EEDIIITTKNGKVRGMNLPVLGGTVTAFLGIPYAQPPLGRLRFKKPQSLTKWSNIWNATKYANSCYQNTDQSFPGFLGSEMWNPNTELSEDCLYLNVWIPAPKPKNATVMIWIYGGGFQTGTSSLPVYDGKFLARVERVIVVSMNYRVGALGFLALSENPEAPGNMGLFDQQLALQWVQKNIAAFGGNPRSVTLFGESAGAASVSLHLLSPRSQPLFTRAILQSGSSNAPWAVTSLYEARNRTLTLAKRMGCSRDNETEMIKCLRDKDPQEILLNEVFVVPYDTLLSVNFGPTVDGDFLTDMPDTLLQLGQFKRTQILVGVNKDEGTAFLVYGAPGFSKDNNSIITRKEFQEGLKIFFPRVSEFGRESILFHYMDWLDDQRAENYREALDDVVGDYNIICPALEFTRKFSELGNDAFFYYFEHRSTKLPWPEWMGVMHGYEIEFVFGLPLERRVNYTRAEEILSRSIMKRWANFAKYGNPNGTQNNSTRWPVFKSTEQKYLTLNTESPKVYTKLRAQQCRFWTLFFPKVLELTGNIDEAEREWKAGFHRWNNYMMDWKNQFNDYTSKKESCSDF
T1 sequence (O42275 whole entry): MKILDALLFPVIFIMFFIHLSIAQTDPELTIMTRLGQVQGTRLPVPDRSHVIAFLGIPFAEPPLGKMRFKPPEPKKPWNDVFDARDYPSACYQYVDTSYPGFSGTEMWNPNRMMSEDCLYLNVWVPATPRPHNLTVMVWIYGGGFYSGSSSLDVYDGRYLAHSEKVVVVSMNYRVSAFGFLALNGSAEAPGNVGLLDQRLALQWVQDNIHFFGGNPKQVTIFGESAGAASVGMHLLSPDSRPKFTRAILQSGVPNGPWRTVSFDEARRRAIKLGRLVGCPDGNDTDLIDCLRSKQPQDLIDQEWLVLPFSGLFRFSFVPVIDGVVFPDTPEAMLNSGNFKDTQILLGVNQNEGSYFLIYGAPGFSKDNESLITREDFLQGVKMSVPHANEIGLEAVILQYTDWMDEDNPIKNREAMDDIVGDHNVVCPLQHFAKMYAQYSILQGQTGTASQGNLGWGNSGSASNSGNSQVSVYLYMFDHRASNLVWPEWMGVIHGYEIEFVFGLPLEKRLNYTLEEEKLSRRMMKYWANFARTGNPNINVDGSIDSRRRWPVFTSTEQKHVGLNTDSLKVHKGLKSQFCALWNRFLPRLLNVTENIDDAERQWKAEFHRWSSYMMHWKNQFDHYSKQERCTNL

SMILES | IC50 (Cholinesterase) | IC50 (Acetylcholinesterase [1]) | Activity (SH-SY5Y [2]) | Ki (Acetylcholinesterase [3]) | Activity (SH-SY5Y [4]) | Activity (SH-SY5Y [5])
Cn1nc2nc3c(c(N)c2c1C(N)=O)CCCC3 | 5.4 µM | 0.6 µM | – | – | – | –
COc1ccc2[nH]cc(CCNC(C)=O)c2c1 [MELATONIN] | – | – | 48% | – | – | –
CC(=O)Nc1nn(C)c2nc3nc4c(c(N)c3c(-c3ccccc3)c12)CCCC4 | 9 µM | 0.23 µM | – | – | – | –
Cn1nc(C(N)=O)c2c(NCCCCCCOc3ccccc3)c3c(nc21)CCCC3 | > 100 µM | 9.3 µM | – | – | – | –
CC(=O)Nc1nn(C)c2nc3nc4c(c(N)c3cc12)CCCC4 | 6.3 µM | 0.069 µM | – | 0.155 µM | 48% | inactive
Cn1nc2nc3c(c(N)c2c1C#N)CCCC3 | 100 µM | 0.57 µM | – | – | – | –
Cn1nc(C#N)c2c(N)c3c(nc21)CCCC3 | 6.3 µM | 1.7 µM | – | – | – | –
